Publication PMC4687525, “Drosophila Avoids Parasitoids by Sensing Their Semiochemicals via a Dedicated Olfactory Circuit” (PLoS Biology, 2015)

Target: T1, Or85f (Drosophila melanogaster, UniProt Q9VHE6)
T1 construct: full-length receptor, UAS-Or85f transgene expressed in mutant ab3A neuron lacking Or22a (delta-halo empty neuron); endogenous Orco; with Odorant receptor coreceptor
T1 sequence (Q9VHE6 1-392): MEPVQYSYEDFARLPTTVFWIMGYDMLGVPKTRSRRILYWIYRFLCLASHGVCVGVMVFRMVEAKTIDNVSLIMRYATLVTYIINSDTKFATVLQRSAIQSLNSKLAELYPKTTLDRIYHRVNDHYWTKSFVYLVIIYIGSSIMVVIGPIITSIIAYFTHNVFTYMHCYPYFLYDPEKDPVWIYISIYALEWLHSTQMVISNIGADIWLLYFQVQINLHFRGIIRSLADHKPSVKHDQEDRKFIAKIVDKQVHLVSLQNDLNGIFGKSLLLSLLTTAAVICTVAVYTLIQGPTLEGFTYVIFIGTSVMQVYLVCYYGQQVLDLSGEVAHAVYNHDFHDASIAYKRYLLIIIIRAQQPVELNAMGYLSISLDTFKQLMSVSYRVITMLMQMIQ
T1 sequence (Q9VNB5 1-486 partner): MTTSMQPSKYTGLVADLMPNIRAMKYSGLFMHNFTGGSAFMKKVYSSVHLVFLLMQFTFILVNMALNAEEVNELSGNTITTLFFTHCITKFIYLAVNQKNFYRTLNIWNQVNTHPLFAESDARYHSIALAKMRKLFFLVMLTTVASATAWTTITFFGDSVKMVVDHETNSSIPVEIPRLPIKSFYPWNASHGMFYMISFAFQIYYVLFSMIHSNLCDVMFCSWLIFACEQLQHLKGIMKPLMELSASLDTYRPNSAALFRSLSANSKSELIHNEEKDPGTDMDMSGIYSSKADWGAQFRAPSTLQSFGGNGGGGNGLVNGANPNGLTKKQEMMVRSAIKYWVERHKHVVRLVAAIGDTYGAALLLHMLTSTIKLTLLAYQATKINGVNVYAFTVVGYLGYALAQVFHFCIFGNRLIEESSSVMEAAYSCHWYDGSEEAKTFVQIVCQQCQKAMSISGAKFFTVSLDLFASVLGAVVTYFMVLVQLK
Assay: GC-coupled single sensillum recording, empty neuron (ab3A)
Type: cell-based
Conditions: agonist

[1] = reference sample described as racemic

Compound	GC-coupled single sensillum recording, empty neuron (ab3A)	GC-coupled single sensillum recording, empty neuron (ab3A) [1]
Cc1cncc2c1CC[C@H]2C [(R)-actinidine]	When we tested OSNs misexpressing Or85f, they became activated by (R)-actinidine and nepetalactol	
CC1=CO[C@H](O)[C@H]2[C@H](C)CC[C@@H]12 (racemic) [1S4aR7R7aS-nepetalactol]		1S4aR7R7aS, 1R4aS7S7aS-nepetalactol and their enantiomers) activated OSNs expressing Or85f
CC1=CO[C@@H](O)[C@@H]2[C@@H]1CC[C@@H]2C (racemic) [1R4aS7S7aS-nepetalactol]		1S4aR7R7aS, 1R4aS7S7aS-nepetalactol and their enantiomers) activated OSNs expressing Or85f
